Test system: NBD1/3D
Test: Aggregation analysis using differential static light scattering (DSLS), NBD1 thermal stability
Assay type: binding, Human
Conditions: ΔTagg versus DMSO control; compound at 100 μM
In short: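 Thermal stabilisation reported as ΔTagg, i.e. aggregation temperature relative to averaged DMSO wells. Tagg came from the inflection of differential static light scattering imaged 25–70 °C while NBD1 (0.2 mg/ml, Tris pH 7.6 buffer containing ATP, MgCl2, DTT, glycerol) was ramped 1 °C/min.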

| SMILES | DSLS NBD1/3D Human Stability delta-T (° C.) @ 100 (μM) |
| --- | --- |
| CC(Cc1cccc(C(C)c2cnc(-c3cc(Oc4c(F)cc5[nH]ccc5c4F)ccc3F)[nH]2)c1F)C(=O)O (single isomer, unassigned) [Example 137A, 3-(3-(1-(2-(5-((4,6-difluoro-1H-indol-5-yl)oxy)-2-fluorophenyl)-1H-imidazol-5-yl)ethyl)-2-fluorophenyl)-2-methylpropanoic acid] | B (B: 5-10° C.) |
| CC(O)(c1cccc(CCC(=O)O)c1)c1c[nH]c(-c2cc(Oc3c(F)cc4[nH]ccc4c3S(C)(=N)=O)ccc2F)n1 (centres unmarked) [Example 203, 3-(3-(1-(2-(2-fluoro-5-((6-fluoro-4-(S-methylsulfonimidoyl)-1H-indol-5-yl)oxy)phenyl)-1H-imidazol-4-yl)-1-hydroxyethyl)phenyl) propanoic acid] | A (A: T ≥ 10° C.) |
| Cc1c(Oc2ccc(F)c(-c3nc(C(C)(O)c4cc(Cl)cc(CCC(=O)O)c4)c[nH]3)c2)c(F)cc2[nH]ccc12 (centres unmarked) [Example 189, 3-(3-chloro-5-(1-(2-(2-fluoro-5-((6-fluoro-4-methyl-1H-indol-5-yl)oxy)phenyl)-1H-imidazol-4-yl)-1-hydroxyethyl)phenyl) propanoic acid] | B (B: 5-10° C.) |
| O=C(O)CCc1cccc(C(O)c2c[nH]c(-c3cc(Oc4c(F)cc5[nH]ccc5c4F)ccc3F)n2)c1 (centres unmarked) [Example 177, 3-(3-((2-(5-((4,6-difluoro-1H-indol-5-yl)oxy)-2-fluorophenyl)-1H-imidazol-4-yl)(hydroxy)methyl)phenyl)propanoic acid] | A (A: T ≥ 10° C.) |
| Cc1c(Oc2ccc(F)c(-c3ncc(Cc4cccc(CCC(=O)O)c4F)[nH]3)c2)ccc2[nH]ccc12 [Example 116, 3-(2-fluoro-3-((2-(2-fluoro-5-((4-methyl-1H-indol-5-yl)oxy)phenyl)-1H-imidazol-5-yl)methyl)phenyl)propanoic acid] | B (B: 5-10° C.) |
| CNC(=O)c1c(Oc2cccc(-c3ccn(Cc4cccc(CCC(=O)O)c4)n3)c2)ccc2[nH]ccc12 [Example 16, 3-(3-((3-(3-((4-(Methylcarbamoyl)-1H-indol-5-yl)oxy)phenyl)-1H-pyrazol-1-yl)methyl)phenyl)propanoic acid] | B (B: 5-10° C.) |
| O=C(O)CCc1cccc(Cc2cnc(-c3cc(Oc4ccc5[nH]ccc5c4C(F)(F)F)ccc3F)[nH]2)c1 [Example 104, 3-(3-((2-(2-fluoro-5-((4-(trifluoromethyl)-1H-indol-5-yl)oxy)phenyl)-1H-imidazol-5-yl)methyl)phenyl)propanoic acid] | B (B: 5-10° C.) |
| CC1(C)COC(c2cccc(CCC(=O)O)c2)(c2cnc(-c3cc(Oc4c(F)c(F)c5[nH]ccc5c4F)ccc3F)[nH]2)OC1 [Example 227, 3-(3-(2-(2-(2-Fluoro-5-((4,6,7-trifluoro-1H-indol-5-yl)oxy)phenyl)-1H-imidazol-5-yl)-5,5-dimethyl-1,3-dioxan-2-yl)phenyl)propanoic acid] | A (A: T ≥ 10° C.) |
| CC(O)(c1cccc(CCC(=O)O)c1)c1cnc(-c2cc(Oc3c(F)cc4[nH]ccc4c3C(F)F)ccc2F)[nH]1 (centres unmarked) [Example 191, 3-(3-(1-(2-(5-((4-(difluoromethyl)-6-fluoro-1H-indol-5-yl)oxy)-2-fluorophenyl)-1H-imidazol-5-yl)-1-hydroxyethyl)phenyl) propanoic acid] | B (B: 5-10° C.) |
| O=C(O)CCc1cccc(Cc2c[nH]c(-c3cc(Oc4c(F)cc5[nH]ccc5c4Cl)ccc3F)n2)c1F [Example 111, 3-(3-((2-(5-((4-chloro-6-fluoro-1H-indol-5-yl)oxy)-2-fluorophenyl)-1H-imidazol-4-yl)methyl)-2-fluorophenyl)propanoic acid] | B (B: 5-10° C.) |
| O=C(O)CCc1cccc(C2(c3cnc(-c4cc(Oc5c(F)cc6[nH]ccc6c5F)ccc4F)[nH]3)OCCO2)c1 [Example 229, 3-(3-(2-(2-(5-((4,6-difluoro-1H-indol-5-yl)oxy)-2-fluorophenyl)-1H-imidazol-5-yl)-1,3-dioxolan-2-yl)phenyl)propanoic acid] | A (A: T ≥ 10° C.) |
| Cc1c(Oc2cccc(-c3ncc(C(O)c4cccc(CC(F)C(=O)O)c4)[nH]3)c2)ccc2[nH]ccc12 (centres unmarked) [Example 172, 2-Fluoro-3-(3-(hydroxy(2-(3-((4-methyl-1H-indol-5-yl)oxy)phenyl)-1H-imidazol-5-yl)methyl)phenyl)propanoic acid] | A (A: T ≥ 10° C.) |
| Cc1c(Oc2ccc(F)c(-c3ncc(C(C)c4cccc([C@@H]5CC5C(=O)O)c4F)[nH]3)c2)c(F)cc2[nH]ccc12 (single isomer, unassigned) [Example 138B, cis-2-(2-fluoro-3-(1-(2-(2-fluoro-5-((6-fluoro-4-methyl-1H-indol-5-yl)oxy)phenyl)-1H-imidazol-5-yl)ethyl)phenyl)cyclopropane-1-carboxylic acid] | C (C: ≤5° C.) |
| O=P(O)(O)OCCCc1cccc(Cc2cnc(-c3cc(Oc4c(F)cc5[nH]ccc5c4F)ccc3F)[nH]2)c1F [Example 269, 3-(3-((2-(5-((4,6-Difluoro-1H-indol-5-yl)oxy)-2-fluorophenyl)-1H-imidazol-5-yl)methyl)-2-fluorophenyl)propyl dihydrogen phosphate] | C (C: ≤5° C.) |
| O=C(O)/C=C/c1cccc(Cn2ccc(-c3cccc(Oc4ccc5[nH]ccc5c4CO)c3)n2)c1 [Example 9, (E)-3-(3-((3-(3-((4-(Hydroxymethyl)-1H-indol-5-yl)oxy)phenyl)-1H-pyrazol-1-yl)methyl)phenyl)acrylic acid] | B (B: 5-10° C.) |
| CC(=O)CCc1cc(F)cc(C(C)(O)c2c[nH]c(-c3cc(Oc4c(F)cc5[nH]ccc5c4F)ccc3F)n2)c1 (centres unmarked) [Example 221, 4-(3-(1-(2-(5-((4,6-Difluoro-1H-indol-5-yl)oxy)-2-fluorophenyl)-1H-imidazol-4-yl)-1-hydroxyethyl)-5-fluorophenyl)butan-2-one] | C (C: ≤5° C.) |
| CNC(=O)c1c(Oc2cccc(-c3ccn(Cc4cccc(/C=C/C(=O)O)c4)n3)c2)ccc2[nH]ccc12 [Example 15, (E)-3-(3-((3-(3-((4-(Methylcarbamoyl)-1H-indol-5-yl)oxy)phenyl)-1H-pyrazol-1-yl)methyl)phenyl)acrylic acid] | B (B: 5-10° C.) |
| CCc1c(Oc2cccc(-c3ncc(C(O)c4cccc(CCC(=O)O)c4)[nH]3)c2)ccc2[nH]ccc12 (centres unmarked) [Example 183, 3-(3-((2-(3-((4-Ethyl-1H-indol-5-yl)oxy)phenyl)-1H-imidazol-5-yl)(hydroxy)methyl)phenyl)propanoic acid] | B (B: 5-10° C.) |
| Cc1c(Oc2ccc(F)c(-c3ncc(Cc4cc(F)cc(CCC(=O)O)c4)[nH]3)c2)c(F)c(F)c2[nH]ccc12 [Example 105, 3-(3-((2-(5-((6,7-difluoro-4-methyl-1H-indol-5-yl)oxy)-2-fluorophenyl)-1H-imidazol-5-yl)methyl)-5-fluorophenyl)propanoic acid] | B (B: 5-10° C.) |
| COc1cc(F)c(-c2ncc(C(C)(O)c3cccc(CCC(=O)O)c3)[nH]2)cc1Oc1c(F)cc2[nH]ccc2c1C (centres unmarked) [Example 281, 3-(3-(1-(2-(2-fluoro-5-((6-fluoro-4-methyl-1H-indol-5-yl)oxy)-4-methoxyphenyl)-1H-imidazol-5-yl)-1-hydroxyethyl)phenyl) propanoic acid] | B (B: 5-10° C.) |
| CS(=O)(=O)c1c(Oc2cccc(-c3ncn(Cc4cccc(CCC(=O)O)c4)n3)c2)c(F)cc2[nH]ccc12 [Example 32, 3-(3-((3-(3-((6-Fluoro-4-(methylsulfonyl)-1H-indol-5-yl)oxy)phenyl)-1H-1,2,4-triazol-1-yl)methyl)phenyl)propanoic acid] | B (B: 5-10° C.) |
| Cc1c(Oc2ccc(F)c(-c3nnc(Cc4cccc(C5CC(C(=O)O)C5)c4)[nH]3)c2)c(F)cc2[nH]ccc12 (centres unmarked) [Example 247, 3-(3-((5-(2-Fluoro-5-((6-fluoro-4-methyl-1H-indol-5-yl)oxy)phenyl)-4H-1,2,4-triazol-3-yl)methyl)phenyl)cyclobutane-1-carboxylic acid] | B (B: 5-10° C.) |
| CC(O)(c1cccc(CCC(=O)O)c1)c1cnc(-c2cc(Oc3c(F)cc4[nH]ccc4c3F)ccc2F)[nH]1 (centres unmarked) [Example 187, 3-(3-(1-(2-(5-((4,6-difluoro-1H-indol-5-yl)oxy)-2-fluorophenyl)-1H-imidazol-5-yl)-1-hydroxyethyl)phenyl) propanoic acid] | A (A: T ≥ 10° C.) |
| CS(=O)(=O)c1c(Oc2cccc(-c3nc(Cc4cccc(CCC(=O)O)c4)cs3)c2)c(F)cc2[nH]ccc12 [Example 35, 3-(3-((2-(3-((6-Fluoro-4-(methylsulfonyl)-1H-indol-5-yl)oxy)phenyl)thiazol-4-yl)methyl)phenyl)propanoic acid] | B (B: 5-10° C.) |
| Cc1c(Oc2cnc(F)c(-c3ncc(C(C)(O)c4cccc(CCC(=O)O)c4)[nH]3)c2)c(F)cc2[nH]ccc12 (centres unmarked) [Example 207, 3-(3-(1-(2-(2-fluoro-5-((6-fluoro-4-methyl-1H-indol-5-yl)oxy)pyridin-3-yl)-1H-imidazol-5-yl)-1-hydroxyethyl)phenyl) propanoic acid] | B (B: 5-10° C.) |
| CC(O)(c1cccc(CCC(=O)O)c1)c1cnc(-c2cc(Oc3c(F)cc4[nH]ccc4c3CCF)ccc2F)[nH]1 (centres unmarked) [Example 200, 3-(3-(1-(2-(2-fluoro-5-((6-fluoro-4-(2-fluoroethyl)-1H-indol-5-yl)oxy)phenyl)-1H-imidazol-5-yl)-1-hydroxyethyl)phenyl) propanoic acid] | A (A: T ≥ 10° C.) |
